{"source": "paper PMC9851200", "about": "“Multiparameter phenotypic screening for endogenous TFEB and TFE3 translocation identifies novel chemical series modulating lysosome function” (Autophagy, 2022)", "origin": "cited, not measured here", "parameters_in_all_cases": "method as in original PKIS2 published data", "key": {"[1]": {"target": "T1, kinases (KINOMEscan panel) (Homo sapiens, UniProt Q96D53)", "T1 sequence (Q96D53 1-544)": "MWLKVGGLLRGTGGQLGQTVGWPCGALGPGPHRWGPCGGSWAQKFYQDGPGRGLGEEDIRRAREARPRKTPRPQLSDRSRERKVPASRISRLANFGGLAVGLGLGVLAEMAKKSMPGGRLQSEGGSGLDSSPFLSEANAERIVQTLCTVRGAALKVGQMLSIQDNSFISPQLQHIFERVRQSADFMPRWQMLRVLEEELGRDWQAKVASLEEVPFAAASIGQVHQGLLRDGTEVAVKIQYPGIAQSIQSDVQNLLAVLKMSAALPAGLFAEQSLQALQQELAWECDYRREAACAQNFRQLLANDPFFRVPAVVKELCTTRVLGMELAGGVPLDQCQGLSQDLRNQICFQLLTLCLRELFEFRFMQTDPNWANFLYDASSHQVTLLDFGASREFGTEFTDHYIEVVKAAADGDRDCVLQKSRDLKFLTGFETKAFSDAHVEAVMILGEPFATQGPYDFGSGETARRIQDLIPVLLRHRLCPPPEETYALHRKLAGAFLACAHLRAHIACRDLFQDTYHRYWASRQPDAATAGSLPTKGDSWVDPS", "conditions": "kinase COQ8B; Published KINOMEscan; ref original PKIS2 published data; cited from earlier work"}, "[2]": {"target": "kinases (KINOMEscan panel) (Homo sapiens, UniProt P51617)", "sequence (P51617 whole entry)": "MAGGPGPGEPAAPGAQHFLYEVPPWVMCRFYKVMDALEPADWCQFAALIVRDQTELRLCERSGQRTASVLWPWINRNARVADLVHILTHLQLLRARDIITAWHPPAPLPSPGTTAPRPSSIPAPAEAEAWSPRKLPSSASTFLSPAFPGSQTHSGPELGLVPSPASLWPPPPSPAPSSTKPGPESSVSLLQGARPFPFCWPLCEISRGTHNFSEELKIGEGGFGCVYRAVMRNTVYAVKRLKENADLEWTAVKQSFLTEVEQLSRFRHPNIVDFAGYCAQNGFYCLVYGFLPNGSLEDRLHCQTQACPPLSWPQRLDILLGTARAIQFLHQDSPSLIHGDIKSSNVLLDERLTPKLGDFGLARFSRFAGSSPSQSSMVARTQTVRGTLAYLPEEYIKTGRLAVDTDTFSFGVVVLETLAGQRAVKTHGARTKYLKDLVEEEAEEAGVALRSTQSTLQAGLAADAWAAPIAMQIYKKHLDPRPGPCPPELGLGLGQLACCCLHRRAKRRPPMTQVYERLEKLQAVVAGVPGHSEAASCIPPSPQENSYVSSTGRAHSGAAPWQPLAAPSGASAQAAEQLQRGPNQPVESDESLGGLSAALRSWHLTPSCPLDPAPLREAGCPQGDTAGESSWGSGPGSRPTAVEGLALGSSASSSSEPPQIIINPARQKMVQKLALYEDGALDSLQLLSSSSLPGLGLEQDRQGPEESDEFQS", "conditions": "kinase IRAK1; Published KINOMEscan; ref original PKIS2 published data; cited from earlier work"}, "[3]": {"target": "T2, kinases (KINOMEscan panel) (Homo sapiens, UniProt Q13976)", "T2 sequence (Q13976 1-671)": "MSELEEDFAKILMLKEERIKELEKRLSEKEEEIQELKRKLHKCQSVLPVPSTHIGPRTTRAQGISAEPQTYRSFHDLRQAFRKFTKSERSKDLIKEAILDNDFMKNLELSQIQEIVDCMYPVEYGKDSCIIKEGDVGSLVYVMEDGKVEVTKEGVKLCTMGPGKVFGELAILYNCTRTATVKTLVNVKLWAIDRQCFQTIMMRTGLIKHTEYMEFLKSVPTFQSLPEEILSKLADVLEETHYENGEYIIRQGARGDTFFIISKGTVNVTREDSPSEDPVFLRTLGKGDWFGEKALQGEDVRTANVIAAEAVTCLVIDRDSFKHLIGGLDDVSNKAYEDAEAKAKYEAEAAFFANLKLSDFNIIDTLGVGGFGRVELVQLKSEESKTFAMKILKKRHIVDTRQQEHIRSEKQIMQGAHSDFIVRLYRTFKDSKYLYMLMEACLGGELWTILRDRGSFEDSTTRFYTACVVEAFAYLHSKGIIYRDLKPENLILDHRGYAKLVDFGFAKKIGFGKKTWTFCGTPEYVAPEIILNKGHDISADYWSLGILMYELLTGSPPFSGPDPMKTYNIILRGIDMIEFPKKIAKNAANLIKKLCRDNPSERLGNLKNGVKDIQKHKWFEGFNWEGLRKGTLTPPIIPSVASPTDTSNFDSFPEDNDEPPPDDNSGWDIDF", "conditions": "kinase PRKG1; Published KINOMEscan; ref original PKIS2 published data; cited from earlier work"}, "[4]": {"target": "kinases (KINOMEscan panel) (Homo sapiens, UniProt Q9BVS4)", "sequence (Q9BVS4 whole entry)": "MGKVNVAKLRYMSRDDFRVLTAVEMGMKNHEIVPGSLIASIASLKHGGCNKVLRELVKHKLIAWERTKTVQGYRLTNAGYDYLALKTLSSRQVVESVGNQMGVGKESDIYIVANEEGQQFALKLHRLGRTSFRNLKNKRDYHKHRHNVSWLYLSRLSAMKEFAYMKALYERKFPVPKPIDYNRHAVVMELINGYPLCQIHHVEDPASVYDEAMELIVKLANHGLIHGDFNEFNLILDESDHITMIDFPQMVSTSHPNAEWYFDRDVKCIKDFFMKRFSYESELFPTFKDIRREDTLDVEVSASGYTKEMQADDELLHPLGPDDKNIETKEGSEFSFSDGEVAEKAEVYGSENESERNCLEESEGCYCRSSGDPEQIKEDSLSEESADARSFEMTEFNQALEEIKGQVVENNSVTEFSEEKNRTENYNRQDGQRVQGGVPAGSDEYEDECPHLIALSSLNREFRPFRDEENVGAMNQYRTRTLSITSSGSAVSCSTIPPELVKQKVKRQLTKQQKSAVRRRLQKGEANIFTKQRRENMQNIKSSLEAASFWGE", "conditions": "RIOK2; Published KINOMEscan; ref original PKIS2 published data; cited from earlier work"}, "[5]": {"target": "T3, kinases (KINOMEscan panel) (Homo sapiens, UniProt P33981)", "T3 sequence (P33981 1-857)": "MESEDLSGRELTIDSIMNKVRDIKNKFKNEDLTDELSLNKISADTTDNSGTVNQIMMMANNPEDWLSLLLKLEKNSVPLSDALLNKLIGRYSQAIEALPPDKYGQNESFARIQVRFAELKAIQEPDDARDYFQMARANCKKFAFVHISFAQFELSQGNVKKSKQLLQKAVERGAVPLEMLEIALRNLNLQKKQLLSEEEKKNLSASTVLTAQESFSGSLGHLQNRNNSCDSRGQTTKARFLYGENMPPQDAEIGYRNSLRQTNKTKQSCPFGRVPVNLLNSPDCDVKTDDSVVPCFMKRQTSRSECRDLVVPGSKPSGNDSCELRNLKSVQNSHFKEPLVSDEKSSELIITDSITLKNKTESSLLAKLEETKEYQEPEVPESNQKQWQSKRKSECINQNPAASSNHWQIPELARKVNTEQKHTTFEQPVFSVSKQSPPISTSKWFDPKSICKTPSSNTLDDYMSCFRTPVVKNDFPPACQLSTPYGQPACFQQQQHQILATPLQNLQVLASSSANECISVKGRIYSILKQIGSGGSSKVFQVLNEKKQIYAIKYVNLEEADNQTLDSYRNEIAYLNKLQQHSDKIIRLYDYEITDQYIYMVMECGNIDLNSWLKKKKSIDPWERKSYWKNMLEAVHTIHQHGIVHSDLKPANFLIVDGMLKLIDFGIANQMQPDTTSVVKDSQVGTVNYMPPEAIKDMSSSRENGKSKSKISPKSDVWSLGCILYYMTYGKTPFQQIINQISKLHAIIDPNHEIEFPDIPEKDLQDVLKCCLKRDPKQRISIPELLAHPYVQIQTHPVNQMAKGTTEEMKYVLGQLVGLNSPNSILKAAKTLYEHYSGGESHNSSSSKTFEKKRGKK", "conditions": "Published KINOMEscan; ref original PKIS2 published data; cited from earlier work"}, "[6]": {"target": "kinases (KINOMEscan panel) (Homo sapiens, UniProt P35916)", "sequence (P35916 25-1363)": "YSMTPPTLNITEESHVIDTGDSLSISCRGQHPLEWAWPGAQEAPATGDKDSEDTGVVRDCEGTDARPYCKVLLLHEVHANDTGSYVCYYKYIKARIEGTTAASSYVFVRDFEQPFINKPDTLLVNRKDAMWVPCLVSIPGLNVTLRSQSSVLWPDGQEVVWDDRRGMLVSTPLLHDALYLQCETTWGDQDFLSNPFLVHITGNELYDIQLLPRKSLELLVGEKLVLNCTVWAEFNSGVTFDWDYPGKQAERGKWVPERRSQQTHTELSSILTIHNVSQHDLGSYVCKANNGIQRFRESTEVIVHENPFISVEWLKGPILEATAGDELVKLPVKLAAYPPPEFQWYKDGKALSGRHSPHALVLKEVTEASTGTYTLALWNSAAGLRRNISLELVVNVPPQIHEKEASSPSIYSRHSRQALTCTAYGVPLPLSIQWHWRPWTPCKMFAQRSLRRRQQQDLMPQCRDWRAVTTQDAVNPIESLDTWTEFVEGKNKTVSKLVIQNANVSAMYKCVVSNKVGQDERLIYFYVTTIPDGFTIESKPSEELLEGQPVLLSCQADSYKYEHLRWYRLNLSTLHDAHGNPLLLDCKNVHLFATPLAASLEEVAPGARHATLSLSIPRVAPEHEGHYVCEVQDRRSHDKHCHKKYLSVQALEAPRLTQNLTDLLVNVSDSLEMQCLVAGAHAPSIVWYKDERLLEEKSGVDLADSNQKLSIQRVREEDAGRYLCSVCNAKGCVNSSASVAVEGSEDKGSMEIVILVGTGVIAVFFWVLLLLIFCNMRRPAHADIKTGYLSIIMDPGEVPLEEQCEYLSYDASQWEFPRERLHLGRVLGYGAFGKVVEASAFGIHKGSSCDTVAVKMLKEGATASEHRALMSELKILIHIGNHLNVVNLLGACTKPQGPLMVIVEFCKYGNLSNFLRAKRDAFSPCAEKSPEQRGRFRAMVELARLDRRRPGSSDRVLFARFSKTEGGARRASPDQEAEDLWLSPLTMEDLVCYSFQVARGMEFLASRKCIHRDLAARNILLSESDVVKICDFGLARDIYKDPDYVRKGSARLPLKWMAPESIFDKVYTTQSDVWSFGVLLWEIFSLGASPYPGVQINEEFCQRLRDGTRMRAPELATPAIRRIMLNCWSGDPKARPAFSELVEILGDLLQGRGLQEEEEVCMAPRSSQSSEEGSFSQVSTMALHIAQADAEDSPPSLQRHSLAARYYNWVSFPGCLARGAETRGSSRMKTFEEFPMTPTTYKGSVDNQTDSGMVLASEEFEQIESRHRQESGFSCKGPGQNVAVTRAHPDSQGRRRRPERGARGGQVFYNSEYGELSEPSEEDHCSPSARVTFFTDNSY", "conditions": "FLT4; Published KINOMEscan; ref original PKIS2 published data; cited from earlier work"}}}
{"smiles": "Cc1cccc(-c2nc(Nc3ccncc3)c3ccccc3n2)n1", "note": "[NK215]", "values": [{"measurement": "KINOMEscan COQ8B", "setting": "[1]", "result": 0}, {"measurement": "KINOMEscan IRAK1", "setting": "[2]", "result": 0}, {"measurement": "KINOMEscan PRKG1", "setting": "[3]", "result": 7}, {"measurement": "KINOMEscan RIOK2", "setting": "[4]", "result": 0}, {"measurement": "KINOMEscan TTK", "setting": "[5]", "result": 10}, {"measurement": "KINOMEscan FLT4", "setting": "[6]", "result": 1}]}
